Source: PubChem BioAssay (NCI)
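Protocol summary: plate cells (96-well), add compound at 5 concentrations, incubate 48 h, interpolate endpoints linearly. TGI: concentration producing complete growth inhibition.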

Columns and labels:
Experiment in all cases: growth of human tumour cells (NCI), 48 h
[1] = system: CCRF-CEM leukemia
[2] = system: HS 578T breast
[3] = system: NCI-H522 lung
[4] = system: SW-620 colon
[5] = system: KM12 colon
[6] = system: MDA-MB-435
[7] = system: NCI-H460 lung
[8] = system: SNB-75 CNS
[9] = system: SK-MEL-5 melanoma
[10] = system: MDA-MB-231 breast
[11] = system: UACC-62 melanoma
[12] = system: SN12C renal
[13] = system: SK-MEL-28 melanoma
[14] = system: OVCAR-4 ovarian
[15] = system: M14 melanoma
[16] = system: SF-268 CNS
[17] = system: RPMI-8226 leukemia
[18] = system: SF-295 CNS
[19] = system: OVCAR-8 ovarian

| Compound | TGI [1] [µM] | TGI [2] [µM] | TGI [3] [µM] | TGI [4] [µM] | TGI [5] [µM] | TGI [6] [µM] | TGI [7] [µM] | TGI [8] [µM] | TGI [9] [µM] | TGI [10] [µM] | TGI [11] [µM] | TGI [12] [µM] | TGI [13] [µM] | TGI [14] [µM] | TGI [15] [µM] | TGI [16] [µM] | TGI [17] [µM] | TGI [18] [µM] | TGI [19] [µM] |
| --- | --- | --- | --- | --- | --- | --- | --- | --- | --- | --- | --- | --- | --- | --- | --- | --- | --- | --- | --- |
| CC1(C)CCCOc2cccc(c2)OCCCC(C)(C)C1=O | 44.2 | > 100 | 67.3 | > 100 | > 100 | > 100 | > 100 | > 100 | 35.8 | > 100 | 73.6 | > 100 | > 100 | > 100 | > 100 | > 100 | > 100 |  |  |
| CCOC(=O)C1=COC(C)(c2ccccc2)CC1=O (stereo unspecified) |  | > 100 | > 100 | > 100 | > 100 | > 100 | > 100 | > 100 | > 100 | > 100 | > 100 | > 100 | > 100 | > 100 | > 100 | > 100 | > 100 | > 100 | > 100 |
| O=C1CCCCCC1CC(Sc1ccccc1)Sc1ccccc1 (stereo unspecified) | > 100 | > 100 | > 100 | > 100 | > 100 | > 100 | > 100 | > 100 | > 100 | > 100 | > 100 |  | > 100 | > 100 | > 100 | > 100 | > 100 | > 100 | > 100 |
| COc1cccc(NC(=O)CC(=O)N2N=C(C)C(N=Nc3ccc(S(=O)(=O)CCOS(=O)(=O)O)cc3)C2=O)c1 (stereo unspecified) | > 100 | 88 | 2.48 | 12.7 | 36 | 10.4 | 17.9 | 15.5 | 13.3 | 25.6 |  | 20.1 | 16.9 | 62.5 | 20.2 |  | 21 | 30.6 | 15.5 |
| Cc1sc(N)c(S(=O)(=O)c2ccccc2)c1C | > 100 | > 100 | > 100 | > 100 | > 100 | > 100 | > 100 | > 100 | > 100 | > 100 | > 100 | > 100 | > 100 | > 100 | > 100 | > 100 | > 100 | > 100 | > 100 |
| COc1cc2c(c(OC)c1OC)C(=O)[C@H](Br)[C@H]2NC(=O)NCCCl | > 100 | > 100 | > 100 | > 100 | > 100 | > 100 | > 100 | > 100 | > 100 | > 100 | > 100 | > 100 | > 100 | > 100 | > 100 | > 100 | > 100 | > 100 | > 100 |
| Cn1c2ccccc2c2nc3ccccc3c(Cl)c21 | > 100 | > 100 | > 100 | > 100 | > 100 | > 100 | > 100 | > 100 |  | > 100 | > 100 | > 100 | > 100 | > 100 | > 100 | > 100 | > 100 | > 100 | > 100 |
| CCOP(=O)(OCC)[C@]12C[C@@H](C)C=C[C@H]1COC2=O | > 100 | > 100 | > 100 | > 100 | > 100 | > 100 | > 100 | > 100 | > 100 | > 100 | > 100 | > 100 | > 100 | > 100 | > 100 | > 100 | > 100 | > 100 | > 100 |
| CN(C)CCc1ccnc2nc(-c3ccc4ccccc4c3)cn12 | > 100 | 52.8 | 24.8 | 47.7 | 44.3 | > 100 | 34.1 |  | > 100 | > 100 | > 100 | 75.9 | > 100 | > 100 | > 100 | 77.5 | > 100 | > 100 | 92.7 |
| CC(/C=N\NC(=S)N(C)C)=N/NC(=S)N(C)C |  | 52.8 | 20.6 | > 100 | > 60.9 | > 100 | > 100 | > 100 | 14.1 | > 100 | > 100 | > 100 | > 100 | > 100 | > 54.1 | > 29.3 | > 100 | > 100 | > 100 |
